US20240277743A1, “RESTORING PHYSIOLOGY WITH SMALL MOLECULE MIMICS OF MISSING PROTEINS” (The Board of Trustees Of The University Of Illinois, priority 2014, published 2024)

Legend:
[1] = tested on: small molecule-rescued trk1Δtrk2Δ cells versus wild type; test: Probing sensitivities to known chemical inhibitors assay; format: cell-based, Saccharomyces cerevisiae; details: for sensitivity of AmB-rescued trk1Δtrk2Δ cells versus AmB-treated wild type to the inhibitor: AmB rescue, OD600 after 24 hours, FIGS. 3B-3D; for optimum rescue concentration for trk1Δtrk2Δ cells: FIG. 3E legend
Procedure: Probing sensitivities to known chemical inhibitors assay. Overnight cultures were grown as described in the MIC assay. Prior to harvesting cells, small molecules AmB, nystatin A1 (Riedel-de-Haen), candicidin (TOKU-E), or mepartricin (Santa Cruz Biotechnology) and chemical inhibitors nocodazole (Sigma-Aldrich), ebselen (Cayman Chemical), or bafilomycin BI (Santa Cruz Biotechnology were prepared as stock solutions in DMSO. Saturated cell cultures were centrifuged for 5 minutes at 1000×g. The supernatant was poured off, and cells were resuspended in sterile MilliQ water. Cells were centrifuged again, and supernatant was poured off. The wash step was repeated. The supernatant was poured off, and cells were resuspended in normal potassium YPAD. Cells were diluted with normal potassium YPAD to an OD600 of 0.01. Next, an appropriate volume of AmB, nystatin A1, candicidin, or mepartricin was added to give a final rescuing concentration of 125 nM, 1000 nM, 8 nM, and 8 nM, respectively. A control was prepared by adding the corresponding volume of DMSO to trk1Δtrk2Δ cells. 195 μL of WT+small molecule, 195 μL of trk1Δtrk2Δ+small molecule, and 195 μL of trk1Δtrk2Δ+DMSO were added to a 96 well plate. Next, 5 μL of DMSO or chemical inhibitor was added to each well, with each concentration tested in triplicate for both WT and trk1Δtrk2Δ . The plate was covered and incubated at 30° C. for 24 hours. A BioTek Synergy H1 Hybrid Reader was used to measure the OD600. Utilizing GraphPad PRISM, data were fitted by nonlinear regression, inhibition dose response, variable slope (four parameters) to yield EC50 values with SEM. For statistical analysis, EC50 values from the two treatment groups were compared by unpaired t-test.

[2] = tested on: CuFi-1 epithelial monolayers (CFTR-deficient human lung epithelia); test: Airway surface liquid (ASL) height studies by confocal fluorescence microscopy; format: cell-based
Procedure: Human cell lines and growth conditions. NuLi and CuFi-1 cells were cultured at the air-liquid interface as previously described, using a 1:1 mixture of DMEM: Ham's F-12 supplemented with 2% v/v Ultroser G (Crescent Chemical). Zabner, J. et al. Am. J. Physiol. Lung Cell. Mol. Physiol. 284, […]-[…] (2003). The membrane supports used were Millicell 0.4 μm PCF inserts (Millipore PIHP01250) for Ussing chamber studies, Corning Costar 0.4 μm Transwell Clear Polyester Membrane inserts (Corning 3470) for rotational mucus transport studies, and Millicell 1.0 μm PCF inserts (Millipore PIRP15R48) for ASL studies. These membranes were allowed to mature at an air-liquid interface for a minimum of 14 days to reach full differentiation. Airway surface liquid (ASL) height studies. ASL height was studied using an established fluorescent dye assay. Worthington, E. N. et al. Methods Mol. Biol. 742, 77-92 (2011); Myerburg. M. M. et al. Am. J. Respir. Cell. Mol. Biol. 42, 676-684 (2010). Mature, differentiated membranes were grown on Millicell […] polyethylene terephthalate hanging cell culture inserts. Wild type (NuLi) lung epithelia were treated with perfluorocarbon (FC-72) vehicle, and CuFi epithelia were treated with vehicle or 500 nM AmB and incubated for 24 hours at 37° ° C. On the day of imaging. 2.5 μL of a 70 kDa Texas Red-dextran conjugate (Molecular Probes) solution in PBS was added to the apical side of the membranes, followed by 100 μL of FC-770 to prevent evaporation. These were placed on 100 μL of PBS on a 10 mm glass bottom Fluorodish for imaging (World Precision Instruments). Membranes were imaged immediately after dye addition and again at 24 hours to examine dye absorption. Three Z-stack images per membrane in biological n=6 were taken on an Zeiss LSM700 confocal microscope at 40× oil immersion. These images were analyzed using ImageJ to determine the area of fluorescence in the left hand 200-micron width of each image. Images were converted to 8-bit, Gaussian Blur was applied, and made binary. The parameters for Analyze Particles were particles from 1-Infinity μm^2 in size and from 0%-100% circularity.

trk1Δtrk2Δ yeast = test: Functional complementation of a protein with a small molecule assay (rescue broth microdilution); format: cell-based, Saccharomyces cerevisiae; details: for restoration of trk1Δtrk2Δ cell growth by ion transporting natural products: FIG. 3A
Text: Broth microdilution minimum inhibitory concentration (MIC) assay. The protocol for the MIC broth microdilution assay was adapted from the Clinical and Laboratory Standards Institute document M27-A2 and performed as previously described. Gray, K. C. et. al. Proc. Natl. Acad. Sci. U.S.A. 109, 2234-2239 (2012); Palacios, D. S. et al. J. Am. Chem. Soc. 129, 13804-13805 (2007).
Functional complementation of a protein with a small molecule assay. The protocol for the rescue broth microdilution assay was conducted as described in the MIC assay above with the following additions: trk1atrk2Δ yeast were grown in high potassium (100 mM) YPAD liquid media overnight and transferred to normal potassium YPAD liquid media containing vehicle or the indicated concentration of AmB.

[3] = tested on: AmB ion channel in trk1Δtrk2Δ cells; details: FIG. 2E
Procedure: Tetraethylammonium block assay. The protocol for the tetraethylammonium block assay was conducted as described in the functional complementation assay above with the addition of 125 nM AmB and the indicated concentration of tetraethylammonium to the normal potassium YPAD media and the indicated concentration of tetraethylammonium to the high potassium (100 mM) YPAD media.

yeast = details: cited from earlier work
trk1Δtrk2Δ cells = test: 86Rb+ uptake assay; format: cell-based, Saccharomyces cerevisiae; details: 3 μM; FIG. 2F
Procedure: ^86Rb^+ uptake assay. The procedure for 86Rb uptake was adapted from Mulet, J. M. et al. Mol. Cell. Biol. 19, 3328-3337 (1999). Overnight yeast cultures were grown as described above. The supernatant was poured off, and the cells were resuspended in sterile water. This wash was repeated two more times. The cells were then resuspended in 40 mL of the potassium starvation/uptake buffer (50 mM succinic acid, 2% glucose, adjusted to pH 5.5 with Tris). After 3 hour incubation in the potassium starvation buffer, cells were centrifuged and washed twice with sterile water. Cells were resuspended in 1 mL of the potassium starvation/uptake buffer. Cell concentration was determined using an INCYTO®; Neubauer disposable hemocytometer, and wild type S. cerevisiae and trk1Δtrk2Δ cells were diluted to the same cell density. 700 μL of the yeast suspension was added to a 1.5 mL Eppendorf tube. After a 5 minute pre-incubation in the potassium starvation/uptake medium, AmB or C35deOAmB was added (final concentration 3 μM) as a DMSO solution. ^86RbCl (1.1 μCi) was then added to the reaction mixtures. Reaction mixtures were vortexed to ensure a homogeneous solution. […] Moist filters were transferred to plastic vials for measuring radioactivity. Radioactivity was monitored using a Perkin Elmer Wizard automatic gamma counter. […]

Q: With `CO/C1=C\C(C)=C\[C@@H](C)[C@@H](O)[C@@H](C)C/C(C)=C/C=C/[C@H](OC)[C@@H]([C@@H](C)[C@@H](O)[C@H](C)[C@@]2(O)C[C@@H](O)[C@H](C)[C@@H](C(C)C)O2)OC1=O` [bafilomycin] as the molecule, how does the “sensitivity of AmB-rescued trk1Δtrk2Δ cells versus AmB-treated wild type to the inhibitor” value [1] read?
A: exceptionally sensitive

Q: With `CCCCNc1cc(C(=O)O)cc(S(N)(=O)=O)c1Oc1ccccc1` [bumetanide] as the molecule, how does the “effect on AmB-mediated ASL restoration” value ([2]; basolateral addition, inhibits NKCC, FIG. 5D) read?
A: blocked

Q: Which “sensitivity of AmB-rescued trk1Δtrk2Δ cells versus AmB-treated wild type to the inhibitor” value [1] does the source give for `COC(=O)Nc1nc2ccc(C(=O)c3cccs3)cc2[nH]1` [nocodazole] here?
A: equally sensitive

Q: Which “restoration of trk1Δtrk2Δ cell growth by ion transporting natural products” value (“restoration of trk1Δtrk2Δ cell growth” for short) (trk1Δtrk2Δ yeast) does the source give for `C[C@@H]1[C@H](O)[C@@H](C)/C=C/C=C/CC/C=C/C=C/C=C/C=C/C(O[C@H]2O[C@H](C)[C@@H](O)[C@H](N)[C@@H]2O)CC2O[C@](O)(CC(O)C(O)CCC(O)CC(O)CC(O)CC(=O)O[C@H]1C)CC(O)C2C(=O)O` (stereo partly drawn) [nystatin] here?
A: Vigorous restoration

Q: And the “optimum rescue concentration for trk1Δtrk2Δ cells” value [1]?
A: 1 µM

Q: With `CC[N+](CC)(CC)CC` [tetraethylammonium] as the molecule, how does the “effect on functional complementation observed with AmB” value ([3]; 125 nM AmB, normal potassium (10 mM KCl), dose-dependent) read?
A: inhibited the functional complementation

Q: What about the “general toxicity to trk1Δtrk2Δ cells” value ([3]; permissive conditions (100 mM KCl)) of the same molecule?
A: without causing general toxicity

Q: Which fungicidal activity (yeast) does the source give for C35-deoxy amphotericin B [C35deOAmB] here?
A: potent fungicidal activity

Q: What about the “ASL height of CuFi-1 epithelia, compound added apically” value ([2]; 500 nM AmB, 24 hours, FIGS. 5A, 5B) of the same molecule?
A: no increase in ASL height

Q: What about the “restoration of growth in trk1Δtrk2Δ cells” value (trk1Δtrk2Δ yeast; any tested concentration, FIG. 2D) of the same molecule?
A: failed to restore growth

Q: And the “86Rb+ uptake in trk1Δtrk2Δ cells” value (trk1Δtrk2Δ cells)?
A: no uptake

Q: With candicidin as the molecule, how does the “restoration of trk1Δtrk2Δ cell growth” value (trk1Δtrk2Δ yeast) read?
A: Vigorous restoration

Q: What about the “optimum rescue concentration for trk1Δtrk2Δ cells” value [1] of the same molecule?
A: 0.008 µM

Q: For mepartricin, which “restoration of trk1Δtrk2Δ cell growth” value (trk1Δtrk2Δ yeast) is on record?
A: Vigorous restoration

Q: What about the “optimum rescue concentration for trk1Δtrk2Δ cells” value [1] of the same molecule?
A: 0.008 µM
